The nature of this series: physchem. As to conditions: organic solvent or mixture. The format is physicochemical. The method, then:
A 22 L, 3 neck flask was equipped with an overhead stirrer, a N2 inlet, and a type-J Teflon® covered thermocouple. The flask was purged with N2 and charged with the crude alcohol 12 prepared above, acetonitrile (7 L) and triethylamine (1400 mL, 10.0 mol). The batch was cooled to ˜10° C.-15° C. using a cold water bath. To the resulting yellow-green suspension was added solid TBDMSCl (1125 g, 7.50 mol), portionwise over ˜20 minutes. The addition was mildly exothermic causing the internal reaction temperature to rise to ˜20° C. After the addition was complete the reaction was stirred overnight at 20° C. under an atmosphere of N2. The following morning the reaction was judged to be >95% complete by TLC or HPLC. The dark green reaction mixture was filtered through a plasticware filter pot (24″×11″) prepacked with gravity grade silica gel (3 kg-slurried in acetonitrile) and a top and bottom layer of celite 21 (500 grams each). The filter pot was rinsed with acetonitrile (10 L, ACS grade) prior to adding the reaction mixture to the pot. Once the reaction mixture containing green solids was added, the filter pot was rinsed with acetonitrile (80 L, ACS grade), collecting 10 L cuts. The washing operation was monitored by TLC until no more product was detected in the washings. This was concentrated in vacuo to afford 2.2 kg of crude which needed to be purified further by silica gel chromatography. […]

In general, solubility refers to the concentration that dissolves in the medium under given conditions.

Converted amounts (≈) assume the structure as drawn.

`CC(C)(C)[Si](C)(C)OCc1nc2cc3c(cc2c(=O)[nH]1)C(=O)CC3` [compound 7, 2-(t-Butyldimethylsiloxymethyl)-4,6-dioxo-3,4,7,8-tetrahydro-3H-cyclopenta[g]quinazoline]: the solubility is, setting by setting: (solubility in 1:1 hexanes:ethyl acetate) 15 mg/mL (≈ 43.5 mM); (solubility in ethyl acetate) approximately 25 mg/mL (≈ 72.6 mM).

For the origin of these results see patent publication US8809526B2, “Synthesis of cyclopentaquinazolines” (ONYX Pharmaceuticals, Inc., priority 2010, dated 2014).
